# Measured values reported in ChEMBL document CHEMBL1134980, “Structure-activity relationships for a series of thiobenzamide influenza fusion inhibitors derived from 1,3,3-trimethyl-5-hydroxy-cyclohexylmethylamine” (Bioorg Med Chem Lett, 2002).
# What was measured:
# MDCK = test: The concentration causing a 50% reduction in cell viability in the absence of influenza infection on MDCK cells in cell protection assay.; type: functional; settings: Canis lupus familiaris
# Influenza A virus = test: Anti-influenza activity on A/WSN/33 (H1N1 subtype) strain of influenza virus infected on MDCK cells in cell protection assay.; type: functional, organism-based
Structure (SMILES),CC50 (MDCK),EC50 (Influenza A virus),IC50 (Influenza A virus)
CC1(C)C[C@H](O)C[C@](C)(CNC(=O)c2ccccc2O)C1,70 µg/mL,–,–
CC1(C)C[C@@H](O)C[C@](C)(C/N=C(\S)c2cc(Cl)ccc2O)C1,4 µg/mL,1.8 µg/mL,1 µg/mL
Cc1ccc(O)c(C(=O)NC[C@@]2(C)C[C@@H](O)CC(C)(C)C2)c1,50 µg/mL,0.03 µg/mL,0.039 µg/mL
CC1(C)C[C@H](O)C[C@](C)(C/N=C(\S)c2ccccc2O)C1,40 µg/mL,4.5 µg/mL,2.4 µg/mL
Cc1ccc(O)c(/C(S)=N/C[C@@]2(C)C[C@H](O)CC(C)(C)C2)c1,20 µg/mL,0.5 µg/mL,0.33 µg/mL
Cc1cccc(/C(S)=N/C[C@@]2(C)C[C@H](O)CC(C)(C)C2)c1,35 µg/mL,0.015 µg/mL,0.03 µg/mL
CC1(C)C[C@@H](O)C[C@](C)(CNC(=O)c2cc(Cl)ccc2O)C1,> 100 µg/mL,0.2 µg/mL,0.15 µg/mL
COc1ccccc1/C(S)=N/C[C@@]1(C)C[C@@H](O)CC(C)(C)C1,45 µg/mL,Not Active,Not Active
Cc1ccc(/C(S)=N/C[C@@]2(C)C[C@@H](O)CC(C)(C)C2)c(C)c1,30 µg/mL,Not Active,Not Active
Cc1ccccc1/C(S)=N/C[C@@]1(C)C[C@@H](O)CC(C)(C)C1,2 µg/mL,Not Active,2.4 µg/mL
CC1(C)C[C@H](O)C[C@](C)(C/N=C(\S)c2cccc(Cl)c2)C1,8.5 µg/mL,Not Active,2.5 µg/mL
Cc1cccc(/C(S)=N/C[C@@]2(C)C[C@@H](O)CC(C)(C)C2)c1,20 µg/mL,Not Active,7.5 µg/mL
Cc1ccc(C)c(/C(S)=N/C[C@@]2(C)C[C@H](O)CC(C)(C)C2)c1,45 µg/mL,0.023 µg/mL,0.08 µg/mL
CC1(C)C[C@H](O)C[C@](C)(CNC(=O)c2cc(Cl)ccc2O)C1,80 µg/mL,0.06 µg/mL,0.025 µg/mL
Cc1ccc(/C(S)=N/C[C@@]2(C)C[C@H](O)CC(C)(C)C2)c(C)c1,35 µg/mL,0.15 µg/mL,0.45 µg/mL
CC1(C)C[C@@H](O)C[C@](C)(C/N=C(\S)c2cccc(F)c2)C1,70 µg/mL,0.038 µg/mL,0.19 µg/mL
Cc1ccc(/C(S)=N/C[C@@]2(C)C[C@H](O)CC(C)(C)C2)cc1,40 µg/mL,Not Active,7 µg/mL
Cc1ccc(O)c(/C(S)=N/C[C@@]2(C)C[C@@H](O)CC(C)(C)C2)c1,15 µg/mL,0.4 µg/mL,0.16 µg/mL
CC1(C)C[C@@H](O)C[C@](C)(C/N=C(\S)c2cccc(Cl)c2)C1,20 µg/mL,0.02 µg/mL,0.047 µg/mL
CC1(C)C[C@@H](O)C[C@](C)(C/N=C(\S)c2cccc(C(F)(F)F)c2)C1,15 µg/mL,0.09 µg/mL,0.3 µg/mL

Structure (SMILES),CC50 (MDCK),EC50 (Influenza A virus),IC50 (Influenza A virus)
CC1(C)C[C@H](O)C[C@](C)(C/N=C(\S)c2cccc(F)c2)C1,20 µg/mL,Not Active,5 µg/mL
CC1(C)C[C@H](O)C[C@](C)(C/N=C(\S)c2cc(Cl)ccc2O)C1,5.5 µg/mL,0.9 µg/mL,2.8 µg/mL
COC(=O)c1cccc(/C(S)=N/C[C@@]2(C)C[C@H](O)CC(C)(C)C2)c1,50 µg/mL,Not Active,Not Active
CC1(C)C[C@@H](O)C[C@](C)(C/N=C(\S)c2cccc([N+](=O)[O-])c2)C1,15 µg/mL,Not Active,1.8 µg/mL
CC1(C)C[C@@H](O)C[C@](C)(C/N=C(\S)c2ccccc2O)C1,40 µg/mL,2 µg/mL,2.4 µg/mL
CC1(C)C[C@@H](O)C[C@](C)(C/N=C(\S)c2ccccc2)C1,10 µg/mL,0.05 µg/mL,0.15 µg/mL
Cc1cc(C)cc(/C(S)=N/C[C@@]2(C)C[C@@H](O)CC(C)(C)C2)c1,40 µg/mL,Not Active,0.5 µg/mL
CC1(C)C[C@H](O)C[C@](C)(C/N=C(\S)c2ccccc2)C1,50 µg/mL,Not Active,3.5 µg/mL
CC1(C)C[C@@H](O)C[C@](C)(CNC(=O)c2ccccc2O)C1,90 µg/mL,–,–
CC1(C)C[C@@H](O)C[C@](C)(C/N=C(\S)c2cccc(C#N)c2)C1,22 µg/mL,2.5 µg/mL,Not Active
Cc1ccc(/C(S)=N/C[C@@]2(C)C[C@@H](O)CC(C)(C)C2)cc1,25 µg/mL,Not Active,Not Active
CC1(C)C[C@H](O)C[C@](C)(C/N=C(\S)c2cccc(C(F)(F)F)c2)C1,5 µg/mL,Not Active,23 µg/mL
COc1ccccc1/C(S)=N/C[C@@]1(C)C[C@H](O)CC(C)(C)C1,43 µg/mL,1 µg/mL,0.5 µg/mL
Cc1cc(C)cc(/C(S)=N/C[C@@]2(C)C[C@H](O)CC(C)(C)C2)c1,18 µg/mL,0.03 µg/mL,0.52 µg/mL
Cc1ccccc1/C(S)=N/C[C@@]1(C)C[C@H](O)CC(C)(C)C1,70 µg/mL,0.065 µg/mL,0.14 µg/mL
Cc1ccc(C)c(/C(S)=N/C[C@@]2(C)C[C@@H](O)CC(C)(C)C2)c1,30 µg/mL,Not Active,1.5 µg/mL
CC1(C)C[C@@H](O)C[C@](C)(CNC(=O)Nc2ccccc2Cl)C1,–,–,0.1 µg/mL
Cc1ccc(O)c(C(=O)NC[C@@]2(C)C[C@H](O)CC(C)(C)C2)c1,70 µg/mL,0.15 µg/mL,0.015 µg/mL
CC1(C)C[C@H](O)C[C@](C)(CNC(=O)Nc2ccccc2Cl)C1 (relative stereo),–,–,0.1 µg/mL
